In patent publication US20260130395A1, “Water Dispersible Botanical Compositions” (Aquila Black Limited, priority 2021, published 2026):

Experiment: Stability of cannabinoid compounds and Vitamin E components in Beverage 1 (AB White) by LCMSMS
Format: physicochemical
Details: for Stability of Plant-Derived Cannabinoid Compounds in AB White, 8° C.: AB White stored at 8° C.; for Stability of Plant-Derived Cannabinoid Compounds in AB White, 21-25° C.: AB White stored at 21-25° C.

## CCCCCc1cc(O)c2c(c1)OC1(C)CCC3C1C2C3(C)C (centres unmarked) [CBL, cannabicyclol]
0 days
  Stability of Plant-Derived Cannabinoid Compounds in AB White, 8° C.: 0.550 µg/mL
  Stability of Plant-Derived Cannabinoid Compounds in AB White, 21-25° C.: 0.550 µg/mL
1 days
  Stability of Plant-Derived Cannabinoid Compounds in AB White, 8° C.: 0.541 µg/mL
  Stability of Plant-Derived Cannabinoid Compounds in AB White, 21-25° C.: 0.539 µg/mL
2 days
  Stability of Plant-Derived Cannabinoid Compounds in AB White, 8° C.: 0.542 µg/mL
  Stability of Plant-Derived Cannabinoid Compounds in AB White, 21-25° C.: 0.540 µg/mL
3 days
  Stability of Plant-Derived Cannabinoid Compounds in AB White, 8° C.: 0.553 µg/mL
  Stability of Plant-Derived Cannabinoid Compounds in AB White, 21-25° C.: 0.543 µg/mL
5 days
  Stability of Plant-Derived Cannabinoid Compounds in AB White, 8° C.: 0.552 µg/mL
  Stability of Plant-Derived Cannabinoid Compounds in AB White, 21-25° C.: 0.530 µg/mL
8 days
  Stability of Plant-Derived Cannabinoid Compounds in AB White, 8° C.: 0.537 µg/mL
  Stability of Plant-Derived Cannabinoid Compounds in AB White, 21-25° C.: 0.542 µg/mL
9 days
  Stability of Plant-Derived Cannabinoid Compounds in AB White, 8° C.: 0.535 µg/mL
  Stability of Plant-Derived Cannabinoid Compounds in AB White, 21-25° C.: 0.535 µg/mL
10 days
  Stability of Plant-Derived Cannabinoid Compounds in AB White, 8° C.: 0.544 µg/mL
  Stability of Plant-Derived Cannabinoid Compounds in AB White, 21-25° C.: 0.546 µg/mL
11 days
  Stability of Plant-Derived Cannabinoid Compounds in AB White, 8° C.: 0.544 µg/mL
  Stability of Plant-Derived Cannabinoid Compounds in AB White, 21-25° C.: 0.552 µg/mL
12 days
  Stability of Plant-Derived Cannabinoid Compounds in AB White, 8° C.: 0.553 µg/mL
  Stability of Plant-Derived Cannabinoid Compounds in AB White, 21-25° C.: 0.529 µg/mL
15 days
  Stability of Plant-Derived Cannabinoid Compounds in AB White, 8° C.: 0.534 µg/mL
  Stability of Plant-Derived Cannabinoid Compounds in AB White, 21-25° C.: 0.548 µg/mL
16 days
  Stability of Plant-Derived Cannabinoid Compounds in AB White, 8° C.: 0.546 µg/mL
  Stability of Plant-Derived Cannabinoid Compounds in AB White, 21-25° C.: 0.537 µg/mL
17 days
  Stability of Plant-Derived Cannabinoid Compounds in AB White, 8° C.: 0.540 µg/mL
  Stability of Plant-Derived Cannabinoid Compounds in AB White, 21-25° C.: 0.554 µg/mL
18 days
  Stability of Plant-Derived Cannabinoid Compounds in AB White, 8° C.: 0.536 µg/mL
  Stability of Plant-Derived Cannabinoid Compounds in AB White, 21-25° C.: 0.554 µg/mL
19 days
  Stability of Plant-Derived Cannabinoid Compounds in AB White, 8° C.: 0.537 µg/mL
  Stability of Plant-Derived Cannabinoid Compounds in AB White, 21-25° C.: 0.552 µg/mL
22 days
  Stability of Plant-Derived Cannabinoid Compounds in AB White, 8° C.: 0.555 µg/mL
  Stability of Plant-Derived Cannabinoid Compounds in AB White, 21-25° C.: 0.547 µg/mL
23 days
  Stability of Plant-Derived Cannabinoid Compounds in AB White, 8° C.: 0.545 µg/mL
  Stability of Plant-Derived Cannabinoid Compounds in AB White, 21-25° C.: 0.530 µg/mL
24 days
  Stability of Plant-Derived Cannabinoid Compounds in AB White, 8° C.: 0.548 µg/mL
  Stability of Plant-Derived Cannabinoid Compounds in AB White, 21-25° C.: 0.546 µg/mL
25 days
  Stability of Plant-Derived Cannabinoid Compounds in AB White, 8° C.: 0.540 µg/mL
  Stability of Plant-Derived Cannabinoid Compounds in AB White, 21-25° C.: 0.532 µg/mL
26 days
  Stability of Plant-Derived Cannabinoid Compounds in AB White, 8° C.: 0.534 µg/mL
  Stability of Plant-Derived Cannabinoid Compounds in AB White, 21-25° C.: 0.549 µg/mL
29 days
  Stability of Plant-Derived Cannabinoid Compounds in AB White, 8° C.: 0.547 µg/mL
  Stability of Plant-Derived Cannabinoid Compounds in AB White, 21-25° C.: 0.552 µg/mL
30 days
  Stability of Plant-Derived Cannabinoid Compounds in AB White, 8° C.: 0.544 µg/mL
  Stability of Plant-Derived Cannabinoid Compounds in AB White, 21-25° C.: 0.543 µg/mL
60 days
  Stability of Plant-Derived Cannabinoid Compounds in AB White, 8° C.: 0.543 µg/mL
  Stability of Plant-Derived Cannabinoid Compounds in AB White, 21-25° C.: 0.544 µg/mL
90 days
  Stability of Plant-Derived Cannabinoid Compounds in AB White, 8° C.: 0.527 µg/mL
  Stability of Plant-Derived Cannabinoid Compounds in AB White, 21-25° C.: 0.541 µg/mL
120 days
  Stability of Plant-Derived Cannabinoid Compounds in AB White, 8° C.: 0.534 µg/mL
  Stability of Plant-Derived Cannabinoid Compounds in AB White, 21-25° C.: 0.516 µg/mL
150 days
  Stability of Plant-Derived Cannabinoid Compounds in AB White, 8° C.: 0.540 µg/mL
  Stability of Plant-Derived Cannabinoid Compounds in AB White, 21-25° C.: 0.517 µg/mL
180 days
  Stability of Plant-Derived Cannabinoid Compounds in AB White, 8° C.: 0.542 µg/mL
  Stability of Plant-Derived Cannabinoid Compounds in AB White, 21-25° C.: 0.527 µg/mL
210 days
  Stability of Plant-Derived Cannabinoid Compounds in AB White, 8° C.: 0.534 µg/mL
  Stability of Plant-Derived Cannabinoid Compounds in AB White, 21-25° C.: 0.514 µg/mL
240 days
  Stability of Plant-Derived Cannabinoid Compounds in AB White, 8° C.: 0.535 µg/mL
  Stability of Plant-Derived Cannabinoid Compounds in AB White, 21-25° C.: 0.515 µg/mL
270 days
  Stability of Plant-Derived Cannabinoid Compounds in AB White, 8° C.: 0.539 µg/mL
  Stability of Plant-Derived Cannabinoid Compounds in AB White, 21-25° C.: 0.535 µg/mL
300 days
  Stability of Plant-Derived Cannabinoid Compounds in AB White, 8° C.: 0.526 µg/mL
  Stability of Plant-Derived Cannabinoid Compounds in AB White, 21-25° C.: 0.532 µg/mL
330 days
  Stability of Plant-Derived Cannabinoid Compounds in AB White, 8° C.: 0.543 µg/mL
  Stability of Plant-Derived Cannabinoid Compounds in AB White, 21-25° C.: 0.526 µg/mL
360 days
  Stability of Plant-Derived Cannabinoid Compounds in AB White, 8° C.: 0.533 µg/mL
  Stability of Plant-Derived Cannabinoid Compounds in AB White, 21-25° C.: 0.526 µg/mL
390 days
  Stability of Plant-Derived Cannabinoid Compounds in AB White, 8° C.: 0.535 µg/mL
  Stability of Plant-Derived Cannabinoid Compounds in AB White, 21-25° C.: 0.518 µg/mL
420 days
  Stability of Plant-Derived Cannabinoid Compounds in AB White, 8° C.: 0.526 µg/mL
  Stability of Plant-Derived Cannabinoid Compounds in AB White, 21-25° C.: 0.523 µg/mL
450 days
  Stability of Plant-Derived Cannabinoid Compounds in AB White, 8° C.: 0.532 µg/mL
  Stability of Plant-Derived Cannabinoid Compounds in AB White, 21-25° C.: 0.521 µg/mL
480 days
  Stability of Plant-Derived Cannabinoid Compounds in AB White, 8° C.: 0.521 µg/mL
  Stability of Plant-Derived Cannabinoid Compounds in AB White, 21-25° C.: 0.510 µg/mL
510 days
  Stability of Plant-Derived Cannabinoid Compounds in AB White, 8° C.: 0.514 µg/mL
  Stability of Plant-Derived Cannabinoid Compounds in AB White, 21-25° C.: 0.503 µg/mL
540 days
  Stability of Plant-Derived Cannabinoid Compounds in AB White, 8° C.: 0.514 µg/mL
  Stability of Plant-Derived Cannabinoid Compounds in AB White, 21-25° C.: 0.510 µg/mL
570 days
  Stability of Plant-Derived Cannabinoid Compounds in AB White, 8° C.: 0.503 µg/mL
  Stability of Plant-Derived Cannabinoid Compounds in AB White, 21-25° C.: 0.505 µg/mL
